Data from patent US6191124A, “Methanol derivatives for treatment of retroviral infections especially HIV infections” (priority 1997, dated 2001).
Like-named read-outs stand apart in the source and are kept apart here.

Molecular target: HIV-1 protease (Human immunodeficiency virus type 1 group M subtype B, UniProt P04585)
Assay: HIV protease screening assay (fluorescently labeled biotinylated substrate, streptavidin beads), percent inhibition
Type: biochemical
Procedure: The HIV protease screening assay is based on fluorescently labeled substrate which can be resolved from nonlabeled cleavage product using special beads coated with streptavidin. The substrate is biotinylated at the amino terminal arginine and fluorescently labeled with fluorescein isothiocynate (FITC) at the carboxyl terminal lysine. This assay has been employed to detect novel, nonpeptidic inhibitors of HIV-1 protease. Substrate (20 μl of 0.2 μM), sample (10 μl of desired concentration), and enzyme (10 μl of 0.1 μM) are added to a 96 well pandex plate. The assay is run in 0.1 M sodium acetate buffer at pH 5.5 in the presence of 1.0 M sodium chloride and 0.05% NP-40 with incubated in the dark for one hour at room temperature. Strepavidin coated polystyrene beads {40 μl of 0.1% (w/v)} are added and the plate is incubated in the dark for an additional half hour. The labeled cleavage product is separated from the unreacted substrate via filtration and is read on the Idexx screen machine. The data are analyzed by appropriate computer algorithms to ascertain percent inhibition values.

[1] = 1.1 μM (Table 8), read-out: PROTEASE INHIBITION
[2] = 3.3 μM (Table 8), read-out: PROTEASE INHIBITION
[3] = 10 μM (Table 8), read-out: PROTEASE INHIBITION
[4] = 1.1 μM (Table 7), read-out: PROTEASE INHIBITION
[5] = 3.3 μM (Table 7), read-out: PROTEASE INHIBITION
[6] = 10 μM (Table 7), read-out: PROTEASE INHIBITION
[7] = 1.1 μM (Table 6), read-out: PROTEASE INHIBITION
[8] = 3.3 μM (Table 6), read-out: PROTEASE INHIBITION
[9] = 3.3 μM (Table 5), read-out: % HIV Protease Inhibition
[10] = 10 μM (Table 5), read-out: % HIV Protease Inhibition
[11] = 3.3 μM (Table 9), read-out: PROTEASE INHIBITION
[12] = 10 μM (Table 9), read-out: PROTEASE INHIBITION
[13] = 10 μM (Table 3), read-out: % Protease Inhibition
[14] = 10 μM (Table 2), read-out: % Protease Inhibition
[15] = 10 μM (Table 1), read-out: % Protease Inhibition

## Cc1ccc(S(=O)(=O)Nc2ccccc2CCC(O)c2cnc3sc(C)c(C)n23)cc1 (centres unmarked) [Example 33]
[1]
  inhibition at 1.1 µM: < 10%
[2]
  inhibition at 3.3 µM: 52%
[3]
  inhibition at 10 µM: 97%

## OC(/C=C/c1cccc(F)c1)c1cnc2sc3c(n12)CCCCC3 (stereo not drawn) [Example 22, α-[2-(3-Fluorophenyl)ethenyl]-6,7,8,9-tetrahydro-5H-imidazo[2,1-b]thiazole-3-methanol]
[4]
  inhibition at 1.1 µM: 24%
[5]
  inhibition at 3.3 µM: 57%
[6]
  inhibition at 10 µM: 66%

## OC(CCc1cccc(Br)c1)c1cnc2sc3c(n12)CCCCC3 (stereo not drawn) [Example 26, α-[2-(3-Bromophenyl)ethyl]-6,7,8,9-tetrahydro-5H-cyclohept[d]imidazo-[2,1-b]thiazol-3-methanol]
[7]
  inhibition at 1.1 µM: 4.8%
[8]
  inhibition at 3.3 µM: 80%

## OC(CCc1ccc2ccccc2c1)c1cnc2sc3c(n12)CCCCC3 (stereo not drawn) [Example 37, α-[2-(2-Naphthalenyl)ethyl]-6,7,8,9-tetrahydro-5H-cyclohept[d]imidazo[2,1-b]thiazol-3-methanol]
[7]
  inhibition at 1.1 µM: 51%
[8]
  inhibition at 3.3 µM: 80%

## Cc1sc2ncc(C(O)CCc3ccco3)n2c1C (centres unmarked) [Example 42]
[1]
  inhibition at 1.1 µM: < 10%
[2]
  inhibition at 3.3 µM: 46%
[3]
  inhibition at 10 µM: 92%

## COc1ccc2c(c1)sc1ncc(C(O)CCc3ccccc3)n12 (stereo not drawn) [Example 21, 7-Methoxy-α-(2-phenylethyl)imidazo[2,1-b]benzothiazole-3-methanol]
[9]
  inhibition at 3.3 µM: 80%
[10]
  inhibition at 10 µM: 93%

## OC(CCc1cccc(Cl)c1)c1cnc2sc3c(n12)CCCCC3 (stereo not drawn) [Example 27, α-[2-(3-Chlorophenyl)ethyl]-6,7,8,9-tetrahydro-5H-cyclohept[d]imidazo[2,1-b]thiazol-3-methanol]
[7]
  inhibition at 1.1 µM: 55%
[8]
  inhibition at 3.3 µM: 98%

## COc1ccc(/C=C/C(O)c2cnc3sc4c(n23)CCCCC4)cc1 (stereo not drawn) [Example 36, α-[2-(4-Methoxyphenyl)ethenyl]-6,7,8,9-tetrahydro-5H-cyclohept-[d]imidazo[2,1-b]thiazol-3-methanol]
[4]
  inhibition at 1.1 µM: 15%
[5]
  inhibition at 3.3 µM: 52%
[6]
  inhibition at 10 µM: 42%

## OC(CCc1ccc(F)cc1)c1cnc2sc3c(n12)CCCCC3 (stereo not drawn) [Example 24, α-[2-(4-Fluorophenyl)ethyl]-6,7,8,9-tetrahydro-5H-cyclohept[d]imidazo[2,1-b]thiazol-3-methanol]
[7]
  inhibition at 1.1 µM: 53%
[8]
  inhibition at 3.3 µM: 77%

## Cc1sc2ncc(C(O)/C=C/c3ccco3)n2c1C (stereo not drawn) [Example 41, α-[2-(2-Furanyl)ethenyl]2,3-dimethylimidazo[2,1-b]thiazol-3-methanol]
[11]
  inhibition at 3.3 µM: 19%
[12]
  inhibition at 10 µM: 81%

## OC(/C=C/c1ccco1)c1cnc2sc3c(n12)CCCCC3 (stereo not drawn) [Example 38, α-[2-(2-Furanyl)ethenyl]-6,7,8,9-tetrahydro-5H-cyclohept[d]imidazo[2,1-b]thiazol-3-methanol]
[4]
  inhibition at 1.1 µM: 12%
[5]
  inhibition at 3.3 µM: 60%
[6]
  inhibition at 10 µM: 98%

## OC(CCc1ccccc1)c1cnc2sc3cc(F)ccc3n12 (stereo not drawn) [Example 20, 7-Fluoro-α-(2-phenylethyl)imidazo[2,1-b]benzothiazole-3-methanol]
[9]
  inhibition at 3.3 µM: 43%
[10]
  inhibition at 10 µM: 88%

## Cc1ccc(S(=O)(=O)Nc2cccc(/C=C/C(O)c3cnc4sc(C)c(C)n34)c2)cc1 (centres unmarked) [Example 32]
[11]
  inhibition at 3.3 µM: < 10%
[12]
  inhibition at 10 µM: 15%

## Cc1csc2ncc(C(C)(O)CCc3ccccc3)n12 (stereo not drawn) [Example 7, α,3-Dimethyl-α-(2-phenylethyl)imidazo[2,1-b]thiazole-5-methanol]
[13]
  inhibition at 10 µM: 14.5%
1-1.2 μM (Table 3)
  % Protease Inhibition: < 10%
3.3-3.7 μM (Table 3)
  % Protease Inhibition: < 10%

## OC(CCc1ccccc1)c1cnc2sc3c(n12)CCC3 (stereo not drawn) [Example 13, 6,7-Dihydro-α-(2-phenylethyl)-5H-cyclopent[d]imidazo[2,1-b]thiazole-3-methanol]
1.1 μM (Table 4), read-out: Protease Inhibition, % Inhibition
  inhibition at 1.1 µM: 39%

## Cc1csc2ncc(C(O)CCCCc3ccccc3)n12 (stereo not drawn) [Example 10, 3-Methyl-α-(4-phenylbutyl)imidazo-[2,1-b]thiazole-5-methanol]
[14]
  inhibition at 10 µM: 58%
1.1-1.3 μM (Table 2)
  % Protease Inhibition: < 10%
3.3-3.7 μM (Table 2)
  % Protease Inhibition: 12%

## CN(C)c1ccc(/C=C/C(O)c2cnc3sc4c(n23)CCCCC4)cc1 (stereo not drawn) [Example 30, α-[2-(4-Dimethylaminophenyl)ethenyl]-6,7,8,9-tetrahydro-5H-cyclohept[d]-imidazo[2,1-b]thiazol-3-methanol]
[5]
  inhibition at 3.3 µM: < 10%
[6]
  inhibition at 10 µM: 24%

## Cc1csc2ncc(C(O)CCc3ccccc3)n12 (stereo not drawn) [Example 8, 3-Methyl-α-(2-phenylethyl)imidazo[2,1-b]thiazole-5-methanol]
[14]
  inhibition at 10 µM: 79%
1.1-1.3 μM (Table 2)
  % Protease Inhibition: < 10%
3.3-3.7 μM (Table 2)
  % Protease Inhibition: 32%

## OC(CCc1ccco1)c1cnc2sc3c(n12)CCCCC3 (stereo not drawn) [Example 39, α-[2-(2-Furanyl)ethyl]-6,7,8,9-tetrahydro-5H-cyclohept[d]imidazo[2,1-b]thiazol-3-methanol]
[7]
  inhibition at 1.1 µM: 54%
[8]
  inhibition at 3.3 µM: 85%

## CN(C)c1ccc(CCC(O)c2cnc3sc4c(n23)CCCCC4)cc1 (centres unmarked) [Example 29]
[7]
  inhibition at 1.1 µM: 24%
[8]
  inhibition at 3.3 µM: 70%

## Cc1csc2ncc(C(O)CC(C)c3ccccc3)n12 (stereo not drawn) [Example 6, 3-Methyl-α-(2-phenylpropyl)imidazo[2,1-b]thiazole-5-methanol]
[14]
  inhibition at 10 µM: 51%
1.1-1.3 μM (Table 2)
  % Protease Inhibition: < 10%
3.3-3.7 μM (Table 2)
  % Protease Inhibition: < 10%

## OC(/C=C/c1ccc(F)cc1)c1cnc2sc3c(n12)CCCCC3 (stereo not drawn) [Example 25, α-[2-(4-Fluorophenyl)ethenyl]-6,7,8,9-tetrahydro-5H-cyclohept[d]imidazo[2,1-b]thiazol-3-methanol]
[4]
  inhibition at 1.1 µM: 23%
[5]
  inhibition at 3.3 µM: 33%
[6]
  inhibition at 10 µM: 21%

## Cc1sc2ncc(C(O)C#Cc3ccccc3)n2c1C (stereo not drawn) [Example 1, 2,3-Dimethyl-α-(2-phenylethynyl)imidazo-[2,1-b]thiazole-5-methanol]
[15]
  inhibition at 10 µM: 16%
3.3-3.7 μM (Table 1)
  % Protease Inhibition: < 10%

## COc1ccc(CCC(O)c2cnc3sc4c(n23)CCCCC4)cc1 (stereo not drawn) [Example 35, α-[2-(4-methoxyphenyl)ethyl]-6,7,8,9-tetrahydro-5H-cyclohept-[d]imidazo[2,1-b]thiazol-3-methanol]
[7]
  inhibition at 1.1 µM: 63%
[8]
  inhibition at 3.3 µM: 81%

## Cc1sc2ncc(C(O)Cc3ccccc3)n2c1C (stereo not drawn) [Example 2, 2,3-Dimethyl-α-(2-phenylmethyl)imidazo-[2,1-b]thiazole-5-methanol]
[15]
  inhibition at 10 µM: 86%
1.1-1.3 μM (Table 1)
  % Protease Inhibition: < 10%
3.3-3.7 μM (Table 1)
  % Protease Inhibition: 27%

## Cc1csc2ncc(C(O)CCc3ccc(Br)cc3)n12 (stereo not drawn) [Example 9, 3-Methyl-α-(4-bromophenylethyl)imidazo[2,1-b]thiazole-5-methanol]
[14]
  inhibition at 10 µM: 83%
1.1-1.3 μM (Table 2)
  % Protease Inhibition: < 10%
3.3-3.7 μM (Table 2)
  % Protease Inhibition: 22%

## OC(CCc1cccc(F)c1F)c1cnc2sc3c(n12)CCCCC3 (stereo not drawn) [Example 34, α-[2-(2,3-Difluorophenyl)ethyl]-6,7,8,9-tetrahydro-5H-cyclohept[d]imidazothiazol-3-methanol]
[7]
  inhibition at 1.1 µM: 58%
[8]
  inhibition at 3.3 µM: 99%

## Cc1ccc2c(c1)sc1ncc(C(O)CCc3ccccc3)n12 (stereo not drawn) [Example 19, 7-Methyl-α-(2-phenylethyl)imidazo[2,1-b]benzothiazole-3-methanol]
[9]
  inhibition at 3.3 µM: 59%
[10]
  inhibition at 10 µM: 92%

## Cc1ccc(S(=O)(=O)Nc2cccc(CCC(O)c3cnc4sc(C)c(C)n34)c2)cc1 (centres unmarked) [Example 31]
[1]
  inhibition at 1.1 µM: 15%
[2]
  inhibition at 3.3 µM: 68%
[3]
  inhibition at 10 µM: 98%

## OC(CCc1cccc(F)c1)c1cnc2sc3c(n12)CCCCC3 (stereo not drawn) [Example 23, α-[2-(3-Fluorophenyl)ethyl]-6,7,8,9-tetrahydro-5H-cyclohept[d]imidazo[2,1-b]thiazol-3-methanol]
[7]
  inhibition at 1.1 µM: 35%
[8]
  inhibition at 3.3 µM: 64%

## OC(CCc1ccccc1)c1cnc2sc3ccccc3n12 (stereo not drawn) [Example 18, α-(2-phenylethyl)-imidazo[2,1-b]benzothiazole-3-methanol]
[9]
  inhibition at 3.3 µM: 28%
[10]
  inhibition at 10 µM: 94%

## Cc1csc2ncc(C(C)(O)/C=C/c3ccccc3)n12 (stereo not drawn) [Example 5, α,3-Dimethyl-α-(E-2-phenyl-E-ethenyl)imidazo[2,1-b]thiazole-5-methanol]
[13]
  inhibition at 10 µM: < 10%
30 μM (Table 3 footnote)
  inhibition at 30 µM: 48.9%
1-1.2 μM (Table 3)
  % Protease Inhibition: < 10%
3.3-3.7 μM (Table 3)
  % Protease Inhibition: < 10%

## OC(CCc1cc(F)cc(F)c1)c1cnc2sc3c(n12)CCCCC3 (stereo not drawn) [Example 28, α-[2-(3,5-Difluorophenyl)ethyl]-1-6,7,8,9-tetrahydro-5H-cyclohept[d]-imidazothiazol-3-methanol]
[7]
  inhibition at 1.1 µM: 64%
[8]
  inhibition at 3.3 µM: 88%
